In US9255090B2, “Heterocyclyl derivatives and their use as prostaglandin D2 receptor modulators” (Actelion Pharmaceuticals Ltd., priority 2012, dated 2016) one finds IC50 data, which are given here for 33 molecules.

Broadly, the IC50 is the concentration that gives 50% inhibition. Lower therefore signals higher potency.

Structures are written as SMILES.

In the assay the target is hCRTH2 receptor (Homo sapiens (Human), UniProt Q9Y5Y4). The assay can be described thus: hCRTH2 receptor membranes radioligand (3H-PGD2) displacement assay. To be noted: 3H-PGD2 radioligand displacement, HEK293-hCRTH2 membranes. It is filed as binding. Summed up: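 Compound was first mixed with buffer, then 3H-PGD2 was added at 2.5 nM, and the reaction was started with hCRTH2 membranes from HEK293 cells at 20 μg/well. After 90 min at room temperature, mixtures were filtered and washed with ice-cold buffer, and retained radioactivity was counted.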
hCRTH2 receptor, sequence (Q9Y5Y4 whole entry): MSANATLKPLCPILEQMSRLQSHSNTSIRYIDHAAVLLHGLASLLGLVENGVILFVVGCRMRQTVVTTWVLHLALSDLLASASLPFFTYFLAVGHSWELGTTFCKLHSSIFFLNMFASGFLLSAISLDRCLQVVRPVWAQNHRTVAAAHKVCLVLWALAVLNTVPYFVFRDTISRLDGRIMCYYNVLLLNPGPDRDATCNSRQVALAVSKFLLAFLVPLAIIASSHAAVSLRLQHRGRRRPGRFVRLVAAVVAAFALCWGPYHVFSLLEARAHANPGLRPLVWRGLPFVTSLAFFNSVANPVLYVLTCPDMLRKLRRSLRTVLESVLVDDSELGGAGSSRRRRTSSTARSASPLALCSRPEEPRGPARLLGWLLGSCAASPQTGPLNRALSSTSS

For the molecule `COc1ccc(CC(=O)O)cc1-c1ccc(F)c2c1CN(C(=O)OCc1ccccc1)C2` [Example 18, 4-(5-Carboxymethyl-2-methoxy-phenyl)-7-fluoro-1,3-dihydro-isoindole-2-carboxylic acid benzyl ester], the IC50 was determined as 165 nM. The value for `COc1ccc(CC(=O)O)cc1-c1ccc(F)c2c1CN(C(=O)CCc1cccnc1)CC2` [Example 51, {3-[5-Fluoro-2-(3-pyridin-3-yl-propionyl)-1,2,3,4-tetrahydro-isoquinolin-8-yl]-4-methoxy-phenyl}-acetic acid] was 57.1 nM; that for `CCOc1ccc(CC(=O)O)cc1-c1ccc(F)c2c1CN(C(=O)/C=C/c1ccn(C)n1)CC2` [Example 337, (4-Ethoxy-3-{5-fluoro-2-[(E)-3-(1-methyl-1H-pyrazol-3-yl)-acryloyl]-1,2,3,4-tetrahydro-isoquinolin-8-yl}-phenyl)-acetic acid] was 30.4 nM; that for `C#CCCOC(=O)N1CCc2c(F)ccc(-c3cc(CC(=O)O)ccc3OCC)c2C1` [Example 381, 8-(5-Carboxymethyl-2-ethoxy-phenyl)-5-fluoro-3,4-dihydro-1H-isoquinoline-2-carboxylic acid but-3-ynyl ester] was 28.8 nM.

Regarding `COc1ccc(CC(=O)O)cc1-c1ccc(C)c2c1CN(C(=O)OCc1ccccc1)CC2` [Example 155, 8-(5-Carboxymethyl-2-methoxy-phenyl)-5-methyl-3,4-dihydro-1H-isoquinoline-2-carboxylic acid benzyl ester], the IC50 came out at 46.8 nM. The value for `COc1ccc(CC(=O)O)cc1-c1ccc(F)c2c1CN(C(=O)NCc1cccc(F)c1)CC2` [Example 131, {3-[5-Fluoro-2-(3-fluoro-benzylcarbamoyl)-1,2,3,4-tetrahydro-isoquinolin-8-yl]-4-methoxy-phenyl}-acetic acid] was 60.1 nM; that for `COc1ccc(CC(=O)O)cc1-c1ccc(F)c2c1CN(C(=O)/C=C/c1cc(C)nn1C)CC2` [Example 90, (3-{2-[(E)-3-(2,5-Dimethyl-2H-pyrazol-3-yl)-acryloyl]-5-fluoro-1,2,3,4-tetrahydro-isoquinolin-8-yl}-4-methoxy-phenyl)-acetic acid] was 49.1 nM; that for `COc1ccc(CC(=O)O)cc1-c1ccc(F)c2c1CN(C(=O)CC1COc3ccccc31)CC2` (racemic) [Example 270] was 25.3 nM.

The molecule `COc1ccc(CC(=O)O)cc1-c1ccc(F)c2c1CCN(C(=O)CCc1ccccc1)C2` [Example 101, {3-[8-Fluoro-2-(3-phenyl-propionyl)-1,2,3,4-tetrahydro-isoquinolin-5-yl]-4-methoxy-phenyl}-acetic acid] registered an IC50 of 64.7 nM.

Turning to `O=C(O)Cc1ccc(OC(F)(F)F)c(-c2ccc(F)c3c2CN(C(=O)[C@@H]2C[C@H]2c2ccccc2)CC3)c1` [Example 26, {3-[5-Fluoro-2-((1R,2R)-2-phenyl-cyclopropanecarbonyl)-1,2,3,4-tetrahydro-isoquinolin-8-yl]-4-trifluoromethoxy-phenyl}-acetic acid], the IC50 is 3.07 nM. The value for `COc1cc(CC(=O)O)ccc1-c1ccc(F)c2c1CN(C(=O)CCc1c(C)[nH]c3ccccc13)CC2` [Example 186, (4-{5-Fluoro-2-[3-(2-methyl-1H-indol-3-yl)-propionyl]-1,2,3,4-tetrahydro-isoquinolin-8-yl}-3-methoxy-phenyl)-acetic acid] was 2.66 nM. As for `COc1ccc(CC(=O)O)cc1-c1ccc(F)c2c1CN(C(=O)CCc1ccccc1C)CC2` [Example 56, {3-[5-Fluoro-2-(3-o-tolyl-propionyl)-1,2,3,4-tetrahydro-isoquinolin-8-yl]-4-methoxy-phenyl}-acetic acid], the IC50 came to 42.1 nM.

Take `COc1ccc(CC(=O)O)cc1-c1ccc(F)c2c1CN(C(=O)C1COc3ccccc3C1)CC2` (racemic) [Example 113, (±)-{3-[2-(Chroman-3-carbonyl)-5-fluoro-1,2,3,4-tetrahydro-isoquinolin-8-yl]-4-methoxy-phenyl}-acetic acid]: the IC50 came to 18.6 nM. For `O=C(O)Cc1ccc(OCCF)c(-c2ccc(F)c3c2CN(C(=O)[C@@H]2C[C@H]2c2ccccc2)CC3)c1` [Example 427, {4-(2-Fluoro-ethoxy)-3-[5-fluoro-2-((1R,2R)-2-phenyl-cyclopropanecarbonyl)-1,2,3,4-tetrahydro-isoquinolin-8-yl]-phenyl}-acetic acid] the value was 3.1 nM; for `O=C(O)Cc1ccc(Cl)c(-c2ccc(F)c3c2CN(C(=O)OCc2ccccc2)CC3)c1` [Example 9, 8-(5-Carboxymethyl-2-chloro-phenyl)-5-fluoro-3,4-dihydro-1H-isoquinoline-2-carboxylic acid benzyl ester], 12.8 nM.

As for `COc1ccc(CC(=O)O)cc1-c1ccc(F)c2c1CN(C(=O)OCc1ccnn1C)CC2` [Example 148, 8-(5-Carboxymethyl-2-methoxy-phenyl)-5-fluoro-3,4-dihydro-1H-isoquinoline-2-carboxylic acid 2-methyl-2H-pyrazol-3-ylmethyl ester], the half-maximal inhibitory concentration (IC50) was determined as 51.6 nM. For `CCCNC(=O)N1CCc2c(F)ccc(-c3cc(CC(=O)O)ccc3OCC)c2C1` [Example 439, [4-Ethoxy-3-(5-fluoro-2-propylcarbamoyl-1,2,3,4-tetrahydro-isoquinolin-8-yl)-phenyl]-acetic acid] the value was 126 nM.

`CCOc1ccc(CC(=O)O)cc1-c1ccc(F)c2c1CN(C(=O)NCc1ccccc1OC)CC2` [Example 437, {4-Ethoxy-3-[5-fluoro-2-(2-methoxy-benzylcarbamoyl)-1,2,3,4-tetrahydro-isoquinolin-8-yl]-phenyl}-acetic acid] yielded an IC50 of 10.9 nM.

Molecule `O=C(O)Cc1ccc(-c2ccc(F)c3c2CN(C(=O)OCc2ccccc2)CC3)c(Cl)c1` [Example 165, 8-(4-Carboxymethyl-2-chloro-phenyl)-5-fluoro-3,4-dihydro-1H-isoquinoline-2-carboxylic acid benzyl ester] displayed an IC50 of 26.3 nM. Molecule `CCOc1ccc(CC(=O)O)cc1-c1ccc(F)c2c1CN(C(=O)NCCc1ccccc1)CC2` [Example 435, [4-Ethoxy-3-(5-fluoro-2-phenethylcarbamoyl-1,2,3,4-tetrahydro-isoquinolin-8-yl)-phenyl]-acetic acid] registered an IC50 of 2.6 nM.

As for `CC(C)Oc1ccc(OCC(=O)O)cc1-c1ccc(F)c2c1CN(C(=O)[C@@H]1C[C@H]1c1ccccc1)CC2` [Example 161, {3-[5-Fluoro-2-((1R,2R)-2-phenyl-cyclopropanecarbonyl)-1,2,3,4-tetrahydro-isoquinolin-8-yl]-4-isopropoxy-phenoxy}-acetic acid], the IC50 worked out at 1.38 nM. For `COc1ccc(CC(=O)O)cc1-c1ccc(F)c2c1CN(C(=O)CCc1ccccn1)CC2` [Example 91, {3-[5-Fluoro-2-(3-pyridin-2-yl-propionyl)-1,2,3,4-tetrahydro-isoquinolin-8-yl]-4-methoxy-phenyl}-acetic acid] the value was 32.1 nM.

In turn, `CCOc1ccc(CC(=O)O)cc1-c1ccc(F)c2c1CN(C(=O)CC(c1ccccn1)C1CC1)CC2` (racemic) [Example 318] registered an IC50 of 114 nM. In turn, `COc1ccc(CC(=O)O)cc1-c1ccc(F)c2c1CN(C(=O)CC(C)c1ccncc1)CC2` (racemic) [Example 267, (±)-{3-[5-Fluoro-2-(3-pyridin-4-yl-butyryl)-1,2,3,4-tetrahydro-isoquinolin-8-yl]-4-methoxy-phenyl}-acetic acid formiate] showed an IC50 of 86.1 nM. The value for `COc1ccc(CC(=O)O)cc1-c1ccc(Cl)c2c1CN(C(=O)CCN1CCCc3ccccc31)CC2` [Example 77, {3-[5-Chloro-2-(3-3,4-dihydro-2H-quinolin-1-yl-propionyl)-1,2,3,4-tetrahydro-isoquinolin-8-yl]-4-methoxy-phenyl}-acetic acid] was 24 nM; that for `CCOc1ccc(CC(=O)O)cc1-c1ccc(F)c2c1CN(C(=O)CCc1cccc(F)c1)CC2` [Example 311, (4-Ethoxy-3-{5-fluoro-2-[3-(3-fluoro-phenyl)-propionyl]-1,2,3,4-tetrahydro-isoquinolin-8-yl}-phenyl)-acetic acid] was 3.9 nM; that for `COc1ccc(CC(=O)O)cc1-c1ccc(F)c2c1CN(C(=O)NCCc1ccccc1)CC2` [Example 133, [3-(5-Fluoro-2-phenethylcarbamoyl-1,2,3,4-tetrahydro-isoquinolin-8-yl)-4-methoxy-phenyl]-acetic acid] was 13 nM. For `CC(C)Oc1cc(CC(=O)O)ccc1-c1ccc(F)c2c1CN(C(=O)CC1CCOc3ccccc31)CC2` (racemic) [Example 353] the value was 1.2 nM. For `O=C(O)Cc1ccc(OCC(F)(F)F)c(-c2ccc(F)c3c2CN(C(=O)CC2CCOc4ccccc42)CC3)c1` (racemic) [Example 299] the value was 14.8 nM; for `COc1ccc(CC(=O)O)cc1-c1ccc(F)c2c1CN(C(=O)C1OCCc3ccccc31)CC2` (racemic) [Example 273], 683 nM. Turning to `O=C(O)Cc1ccc(Cl)cc1-c1ccc(F)c2c1CN(C(=O)OCc1ccccc1)CC2` [Example 416, 8-(2-Carboxymethyl-5-chloro-phenyl)-5-fluoro-3,4-dihydro-1H-isoquinoline-2-carboxylic acid benzyl ester], the IC50 is 575 nM. In turn, `CCOc1ccc(CC(=O)O)cc1-c1ccc(F)c2c1CN(C(=O)OCC=C(C)C)CC2` [Example 375, 8-(5-Carboxymethyl-2-ethoxy-phenyl)-5-fluoro-3,4-dihydro-1H-isoquinoline-2-carboxylic acid 3-methyl-but-2-enyl ester] showed an IC50 of 8.7 nM. For `COc1ccc(CC(=O)O)cc1-c1ccc(F)c2c1CN(C(=O)CCc1ncccn1)CC2` [Example 93, {3-[5-Fluoro-2-(3-pyrimidin-2-yl-propionyl)-1,2,3,4-tetrahydro-isoquinolin-8-yl]-4-methoxy-phenyl}-acetic acid] the value was 690 nM.
